According to patent US20140357487A1, “PLANTS HAVING INCREASED TOLERANCE TO HERBICIDES” (BASF SE, priority 2011, published 2014):

How the values were obtained:
[1] = system: transgenic corn plants, Arabidopsis I393L L385V, event SDM-71855; experiment: Greenhouse testing of transgenic corn plants, Arabidopsis I393L L385V; type: in vivo, Zea mays; conditions: corn SDM-71855, 5 days after herbicide treatment, average of 8 T1
Source text: (§1) Various methods for the production of stably transformed plants are well known in the art. Coumarone-derivative herbicide tolerant soybean (Glycine max) or corn (Zea mays) plants can be produced by a method described by Olhoft et al. (US patent 2009/0049567). Briefly, HPPD or HST encoding polynucleotides are cloned into a binary vector using standard cloning techniques as described by Sambrook et al. (Molecular cloning (2001) Cold Spring Harbor Laboratory Press). The final vector construct contains an HPPD or HST encoding sequence flanked by a promoter sequence (e.g. the ubiquitin promoter (PcUbi) sequence) and a terminator sequence (e.g. the nopaline synthase terminator (NOS) sequence) and a resistance marker gene cassette (e.g. AHAS) (FIG. 2). Optionally, the HPPD or HST gene can provide the means of selection. Agrobacterium-mediated transformation is used to introduce the DNA into soybean's axillary meristem cells at the primary node of seedling explants. After inoculation and co-cultivation with Agrobacteria, the explants are transferred to shoot induction medium without selection for one week. The explants are subsequently transferred to shoot induction medium with 1-3 μM imazapyr (Arsenal) for 3 weeks to select for transformed cells. Explants with healthy callus/shoot pads at the primary node are then transferred to shoot elongation medium containing 1-3 μM imazapyr until a shoot elongates or the explant dies. After regeneration, transformants are transplanted to soil in small pots, placed in growth chambers (16 hr day/8 hr night; 25° C. day/23° C. night; 65% relative humidity; 130-150 mE m−2 s−1) and subsequently tested for the presence of the T-DNA via Taqman analysis. After a few weeks, healthy, transgenic positive, single copy events are transplanted to larger pots and allowed to grow in the growth chamber. Transformation of corn plants is done by a method described by McElver and Singh (WO 2008/124495). Plant transformation vector constructs containing HPPD or HST sequences are introduced into maize immature embryos via Agrobacterium-mediated transformation. Transformed cells are selected in selection media supplemented with 0.5-1.5 μM imazethapyr for 3-4 weeks. Transgenic plantlets are regenerated on plant regeneration media and rooted afterwards. Transgenic plantlets are subjected to TaqMan analysis for the presence of the transgene before being transplanted to potting mixture and grown to maturity in greenhouse. Arabidopsis thaliana is transformed with HPPD or HST sequences by floral dip method as described by McElver and Singh (WO 2008/124495). Transgenic Arabidopsis plants are subjected to Tag Man analysis for analysis of the number of integration loci. Transformation of Oryza sativa (rice) are done by protoplast transformation as described by Peng et al. (U.S. Pat. No. 6,653,529)
(§2) Transgenic plants expressing heterologous HPPD or HST enzymes are tested for tolerance against coumarone-derivative herbicides in greenhouse experiments.
(§3) For post emergence treatment, the test plants are first grown to a height of 3 to 15 cm, depending on the plant habit, and only then treated with the herbicides. For this purpose, the test plants are either sown directly and grown in the same containers, or they are first grown separately and transplanted into the test containers a few days prior to treatment.
(§4) Depending on the species, the plants are kept at 10-25° C. or 20-35° C. The test period extends over 3 weeks. During this time, the plants are tended and their response to the individual treatments is evaluated. […] Tolerance to coumarone-derivative herbicides can also be assessed in Arabidopsis. In this case transgenic Arabidopsis thaliana plants are assayed for improved tolerance to coumarone-derivative herbicides in 48-well plates. Seeds are surface sterilized by stirring for 5 min in ethanol+water (70+30 by volume), rinsing one time with ethanol+water (70+30 by volume) and two times with a sterile, deionized water. […]

[2] = system: transgenic soybean plants, Arabidopsis HPPD, event SDS-9857; experiment: Greenhouse testing of transgenic soybean plants, Arabidopsis HPPD; type: in vivo, Glycine max; conditions: soybean SDS-9857, 5 days after herbicide treatment, average of 8 T1
Source text: as §1, §2, §3
Depending on the species, the plants are kept at 10-25° C. or 20-35° C. […] During this time, the plants are tended and their response to the individual treatments is evaluated. […] Tolerance to coumarone-derivative herbicides can also be assessed in Arabidopsis. In this case transgenic Arabidopsis thaliana plants are assayed for improved tolerance to coumarone-derivative herbicides in 48-well plates. Seeds are surface sterilized by stirring for 5 min in ethanol+water (70+30 by volume), rinsing one time with ethanol+water (70+30 by volume) and two times with a sterile, deionized water. […]

[3] = system: transgenic soybean plants, Arabidopsis M335H, event SDS-9977; experiment: Greenhouse testing of transgenic soybean plants, Arabidopsis M335H; type: in vivo, Glycine max; conditions: soybean SDS-9977, 5 days after herbicide treatment, average of 8 T1
Source text: as §1, §2, §3, §4

[4] = system: transgenic soybean plants, Arabidopsis Q293S, event SDS-10204; experiment: Greenhouse testing of transgenic soybean plants, Arabidopsis Q293S; type: in vivo, Glycine max; conditions: soybean SDS-10204, 5 days after herbicide treatment, average of 8 T1
Source text: as §1, §2, §3, §4

`CC1(C)c2cccnc2C(O)=C(c2ccc(Cl)nc2Cl)S1(=O)=O` [Inhibitor 2, 7-(2,6-dichloro-3-pyridyl)-5,5-dimethyl-6,6-dioxo-thiopyrano[4,3-b]pyridin-8-ol] was tested, and the “Injury evaluation, scale of 1-100, bleaching phenotype” value (shortened to “Injury evaluation, scale”) ([1]; 2.5 g/ha) was 7, the “Injury evaluation, scale” value ([1]; 10 g/ha) was 7 and the “Injury evaluation, scale” value ([1]; 40 g/ha) was 25. For the same compound, the “Injury evaluation, scale” value ([2]; 2.5 g/ha) was 1, the “Injury evaluation, scale” value ([2]; 10 g/ha) was 1 and the “Injury evaluation, scale” value ([2]; 40 g/ha) was 2. For the same compound, the “Injury evaluation, scale” value ([3]; 2.5 g/ha) was 1, the “Injury evaluation, scale” value ([3]; 10 g/ha) was 1 and the “Injury evaluation, scale” value ([3]; 40 g/ha) was 5. The “Injury evaluation, scale” value ([4]; 2.5 g/ha) was 1, the “Injury evaluation, scale” value ([4]; 10 g/ha) was 4 and the “Injury evaluation, scale” value ([4]; 40 g/ha) was 21.

With `Cc1c(C(=O)c2cnn(C)c2O)ccc(S(C)(=O)=O)c1C1=NOCC1` [Topramezone, reference compound] the “Injury evaluation, scale” value ([1]; 6.25 g/ha) was 0, the “Injury evaluation, scale” value ([1]; 25 g/ha) was 0 and the “Injury evaluation, scale” value ([1]; 100 g/ha) was 4. The “Injury evaluation, scale” value ([2]; 6.25 g/ha) was 1, the “Injury evaluation, scale” value ([2]; 25 g/ha) was 10 and the “Injury evaluation, scale” value ([2]; 100 g/ha) was 19. The “Injury evaluation, scale” value ([3]; 6.25 g/ha) was 8, the “Injury evaluation, scale” value ([3]; 25 g/ha) was 4 and the “Injury evaluation, scale” value ([3]; 100 g/ha) was 15. The “Injury evaluation, scale” value ([4]; 6.25 g/ha) was 10, the “Injury evaluation, scale” value ([4]; 25 g/ha) was 17 and the “Injury evaluation, scale” value ([4]; 100 g/ha) was 21.
